Measurements from ChEMBL document CHEMBL1145637, “Dual binding site inhibitors of B-RAF kinase” (Bioorg Med Chem Lett, 2008).
In brackets after ≈: the same amount, converted by molar mass. Activity calls are given as the source filed them. The calls are words filed in the database; no cut-off is given here.

How the values were obtained:
[1] = Inhibition of ERK phosphorylation
[2] = target: RAF proto-oncogene serine/threonine-protein kinase (Homo sapiens, UniProt P04049); experiment: Inhibition of C-RAF kinase
[3] = Aqueous solubility in NaH2PO4 at pH 7.4 after 24 hrs by HPLC; format: physicochemical; conditions: for solubility at 24 h: NaH2PO4 buffer, pH 7.4; for Activity: buffer, pH 7.4, 24 h
[4] = target: Serine/threonine-protein kinase B-raf (Homo sapiens, UniProt P15056)
Description: Inhibition of B-RAF kinase

[5] = target: Serine/threonine-protein kinase B-raf (Homo sapiens, UniProt P15056, V600E)
Description: Inhibition of B-RAF V600E mutant

[6] = Metabolic stability in human liver microsome after 30 mins; format: ADME; conditions: liver microsomes, read-out: Stability
[7] = (§1) Metabolic stability in rat liver microsome after 30 mins; format: ADME, microsomes; conditions: liver microsomes, read-out: Stability
Liver microsomes = experiment: as §1; format: ADME; conditions: microsomes, 0.5 h

Chain of Serine/threonine-protein kinase B-raf (Homo sapiens, UniProt P15056) (P15056 whole entry): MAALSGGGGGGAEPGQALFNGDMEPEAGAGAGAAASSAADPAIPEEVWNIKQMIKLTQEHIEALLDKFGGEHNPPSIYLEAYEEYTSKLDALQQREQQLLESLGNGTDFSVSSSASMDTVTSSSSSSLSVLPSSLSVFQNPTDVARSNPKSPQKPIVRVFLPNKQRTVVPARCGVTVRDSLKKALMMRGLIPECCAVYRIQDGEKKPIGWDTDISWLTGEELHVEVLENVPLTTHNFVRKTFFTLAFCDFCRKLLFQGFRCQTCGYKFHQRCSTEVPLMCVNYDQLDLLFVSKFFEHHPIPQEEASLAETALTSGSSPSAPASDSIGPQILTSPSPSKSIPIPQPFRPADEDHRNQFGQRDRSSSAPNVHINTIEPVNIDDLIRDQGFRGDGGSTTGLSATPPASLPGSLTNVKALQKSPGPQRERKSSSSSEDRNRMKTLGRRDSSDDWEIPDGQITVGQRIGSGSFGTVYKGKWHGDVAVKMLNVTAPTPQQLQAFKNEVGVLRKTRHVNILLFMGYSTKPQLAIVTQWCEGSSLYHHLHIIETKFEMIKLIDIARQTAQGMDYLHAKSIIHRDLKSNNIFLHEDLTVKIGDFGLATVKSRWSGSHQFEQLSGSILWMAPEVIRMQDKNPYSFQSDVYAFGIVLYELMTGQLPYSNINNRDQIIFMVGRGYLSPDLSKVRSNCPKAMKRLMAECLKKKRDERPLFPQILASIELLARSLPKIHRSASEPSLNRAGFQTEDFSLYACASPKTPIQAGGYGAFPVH
Chain of Serine/threonine-protein kinase B-raf (Homo sapiens, UniProt P15056, V600E) (P15056 2-766 V600E limits assumed): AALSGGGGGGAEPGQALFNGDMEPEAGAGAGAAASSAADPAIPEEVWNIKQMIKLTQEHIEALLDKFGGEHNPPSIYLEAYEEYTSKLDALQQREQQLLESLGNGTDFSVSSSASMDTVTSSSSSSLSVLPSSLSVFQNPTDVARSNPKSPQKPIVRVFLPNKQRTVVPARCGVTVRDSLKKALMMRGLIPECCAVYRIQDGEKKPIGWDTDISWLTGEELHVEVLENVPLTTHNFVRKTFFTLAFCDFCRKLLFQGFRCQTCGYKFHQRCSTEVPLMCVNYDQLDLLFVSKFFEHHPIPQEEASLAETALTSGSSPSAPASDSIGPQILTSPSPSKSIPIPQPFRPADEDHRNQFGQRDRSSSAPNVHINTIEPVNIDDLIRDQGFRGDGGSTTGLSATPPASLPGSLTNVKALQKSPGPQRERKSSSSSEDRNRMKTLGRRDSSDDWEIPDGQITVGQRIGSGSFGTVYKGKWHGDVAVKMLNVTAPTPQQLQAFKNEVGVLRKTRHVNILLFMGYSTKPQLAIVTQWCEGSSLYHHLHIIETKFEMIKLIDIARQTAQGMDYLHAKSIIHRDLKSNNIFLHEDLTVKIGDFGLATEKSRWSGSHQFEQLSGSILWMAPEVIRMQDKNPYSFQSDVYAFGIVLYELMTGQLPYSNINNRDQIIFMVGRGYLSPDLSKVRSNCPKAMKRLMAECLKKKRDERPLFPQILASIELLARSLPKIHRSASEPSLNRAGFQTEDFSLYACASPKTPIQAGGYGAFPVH
Chain of RAF proto-oncogene serine/threonine-protein kinase (P04049 whole entry): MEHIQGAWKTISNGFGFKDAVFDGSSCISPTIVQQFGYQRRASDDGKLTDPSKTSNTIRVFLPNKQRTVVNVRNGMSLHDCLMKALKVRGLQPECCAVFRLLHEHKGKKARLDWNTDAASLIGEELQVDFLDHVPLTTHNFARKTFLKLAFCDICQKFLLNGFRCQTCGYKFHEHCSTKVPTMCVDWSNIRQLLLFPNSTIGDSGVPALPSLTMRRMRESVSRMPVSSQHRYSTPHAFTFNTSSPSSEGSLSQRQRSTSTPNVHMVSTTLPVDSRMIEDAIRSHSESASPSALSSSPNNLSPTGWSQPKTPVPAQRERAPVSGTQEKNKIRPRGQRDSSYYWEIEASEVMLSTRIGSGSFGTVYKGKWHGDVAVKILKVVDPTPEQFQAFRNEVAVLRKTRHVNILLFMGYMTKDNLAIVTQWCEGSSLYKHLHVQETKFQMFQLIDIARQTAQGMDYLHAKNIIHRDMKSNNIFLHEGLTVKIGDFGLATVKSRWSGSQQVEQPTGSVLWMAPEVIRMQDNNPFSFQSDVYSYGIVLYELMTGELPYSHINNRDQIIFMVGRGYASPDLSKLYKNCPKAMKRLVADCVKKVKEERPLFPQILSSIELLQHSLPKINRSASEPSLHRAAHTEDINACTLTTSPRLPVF

Row | SMILES | IC50 [1] | IC50 [2] | solubility at 24 h [3] | IC50 [4] | IC50 [5] | remaining at 0.5 h [6] | remaining at 0.5 h [7] | Activity [3] | Activity [1] | Activity (Liver microsomes)
1 | CNc1nccc(-c2[nH]c(C3CC3)nc2-c2cccc(NC(=O)Cc3ccc(Cl)cc3)c2)n1 | 5.1 µM | 0.001 µM | 0.4 µM (≈ 0.184 µg/mL) | 0.009 µM | 0.003 µM | – | – | – | – | –
2 | O=C1NCCN1CCNc1nccc(-c2nc(C3CC3)[nH]c2-c2cccc(NS(=O)(=O)Cc3ccc(Cl)c(Cl)c3)c2)n1 | – | 0.041 µM | – | 0.343 µM | 0.141 µM | 85% | 52% | Not Active | – | –
3 | NC(=O)c1cccc(Nc2nccc(-c3[nH]c(C(F)(F)F)nc3-c3cccc(NC(=O)Cc4ccc(Cl)cc4)c3)n2)c1 | 30 µM | 0.017 µM | 0.35 µM (≈ 0.207 µg/mL) | 0.108 µM | 0.085 µM | 71% | 47% | – | – | –
4 | NC(=O)c1cccc(Nc2nccc(-c3[nH]c(C4CC4)nc3-c3cccc(NC(=O)Nc4ccc(Cl)c(C(F)(F)F)c4)c3)n2)c1 | 2.1 µM | 0.031 µM | 0.4 µM (≈ 0.253 µg/mL) | 0.035 µM | 0.061 µM | – | – | – | – | –
5 | NC(=O)c1cccc(Nc2nccc(-c3[nH]c(C4CC4)nc3-c3cccc(NC(=O)Cc4ccc(Cl)cc4)c3)n2)c1 | 2.4 µM | 0.0005 µM | 0.5 µM (≈ 0.282 µg/mL) | 0.004 µM | 0.003 µM | 53% | 58% | – | – | –
6 | CNc1nccc(-c2[nH]c(C(F)(F)F)nc2-c2cccc(NC(=O)Cc3ccc(Cl)cc3)c2)n1 | 12.6 µM | 0.002 µM | 0.48 µM (≈ 0.234 µg/mL) | 0.03 µM | 0.018 µM | 74% | 81% | – | – | –
7 | O=C1NCCN1CCNc1nccc(-c2nc(C3CC3)[nH]c2-c2cc(Cl)ccc2Cl)n1 | – | – | – | 0.01 µM | – | – | – | – | – | –
8 | O=C1NCCN1CCNc1nccc(-c2[nH]c(C3CC3)nc2-c2cccc(NS(=O)(=O)Cc3ccc(Cl)c(Cl)c3)c2)n1 | – | – | – | – | – | – | – | – | inactive | –
9 | CNc1nccc(-c2[nH]c(C3CC3)nc2-c2cccc(NS(=O)(=O)Cc3ccc(Cl)c(Cl)c3)c2)n1 | – | 0.026 µM | – | 0.469 µM | 0.138 µM | 60% | 87% | Not Active | inactive | –
10 | CNc1nccc(-c2[nH]c(C3CC3)nc2-c2cccc(NC(=O)Nc3ccc(Cl)c(C(F)(F)F)c3)c2)n1 | 1.4 µM | 0.005 µM | 0.3 µM (≈ 0.158 µg/mL) | 0.021 µM | 0.016 µM | 80% | 57% | – | – | –
11 | CC(C)(C)NC(=O)NCCNc1nccc(-c2[nH]c(C3CC3)nc2-c2ccccc2Cl)n1 | – | – | – | 0.083 µM | – | – | – | – | – | –
12 | NC(=O)c1cccc(Nc2nccc(-c3nc(C4CC4)[nH]c3-c3cccc(NS(=O)(=O)Cc4ccc(Cl)c(Cl)c4)c3)n2)c1 | – | 0.049 µM | – | 0.887 µM | 0.274 µM | 76% | 44% | Not Active | – | –
13 | O=C(Cc1ccc(Cl)cc1)Nc1cccc(-c2nc(C3CC3)[nH]c2-c2ccnc(NCCN3CCNC3=O)n2)c1 | 3 µM | 0.001 µM | 35 µM (≈ 19.5 µg/mL) | 0.007 µM | 0.002 µM | 38% | 60% | – | – | –
14 | O=C(Cc1ccc(Cl)cc1)Nc1cccc(-c2nc(C(F)(F)F)[nH]c2-c2ccnc(NCCN3CCNC3=O)n2)c1 | 30 µM | 0.02 µM | 7.5 µM (≈ 4.39 µg/mL) | 0.054 µM | 0.04 µM | 73% | 34% | – | – | –
15 | NC(=O)c1cccc(Nc2nccc(-c3[nH]c(C4CC4)nc3-c3cccc(NS(=O)(=O)Cc4ccc(Cl)c(Cl)c4)c3)n2)c1 | – | – | – | – | – | – | – | – | inactive | –
16 | CNC(=O)c1cc(Oc2ccc(NC(=O)Nc3ccc(Cl)c(C(F)(F)F)c3)cc2)ccn1 [SORAFENIB] | 8.3 µM | – | 6.3 µM (≈ 2.93 µg/mL) | – | – | 80% | – | – | – | Not Active
17 | O=C(Nc1cccc(-c2nc(C3CC3)[nH]c2-c2ccnc(NCCN3CCNC3=O)n2)c1)Nc1ccc(Cl)c(C(F)(F)F)c1 | 2.3 µM | 0.014 µM | 6.2 µM (≈ 3.88 µg/mL) | 0.066 µM | 0.022 µM | 50% | 44% | – | – | –
